# Test results taken from ChEMBL document CHEMBL3390836, “Mannich- and LedererManasse-based analogues of the natural product S-(+)-curcuphenol as cancer proliferation and migration inhibitors” (Medchemcomm, 2012).
# Legend:
# Format in all cases: functional
# [1] = system: HL-60(TB); assay: Cytotoxicity against human HL-60(TB) cells assessed as cell growth at 10^-4 M after 48 hrs by SRB assay relative to control; conditions: HL-60, 48 h, read-out: Activity
# [2] = system: SNB-19; assay: Cytotoxicity against human SNB19 cells after 48 hrs by SRB assay; conditions: SNB-19, 48 h; for CC50: read-out: LC50 (the source's name)
# [3] = system: HT-29; assay: Cytotoxicity against human HT-29 cells assessed as cell growth at 10^-7 M after 48 hrs by SRB assay relative to control; conditions: HT-29, 48 h, read-out: Activity
# [4] = system: SF-539; assay: Cytotoxicity against human SF539 cells after 48 hrs by SRB assay; conditions: SF-539, 48 h; for CC50: read-out: LC50 (the source's name)
# [5] = system: SF-268; assay: Cytotoxicity against human SF268 cells after 48 hrs by SRB assay; conditions: SF-268, 48 h; for CC50: read-out: LC50 (the source's name)
# [6] = Cytotoxicity against human PC3 cells assessed as cell growth at 10^-8 M after 48 hrs by SRB assay relative to control; conditions: PC-3, 48 h, read-out: Activity
# [7] = system: HCC 2998; assay: Cytotoxicity against human HCC2998 cells after 48 hrs by SRB assay; conditions: HCC 2998, 48 h; for CC50: read-out: LC50 (the source's name)
# [8] = Cytotoxicity against human SKOV3 cells assessed as cell growth at 10^-7 M after 48 hrs by SRB assay relative to control; conditions: SK-OV-3, 48 h, read-out: Activity
# [9] = system: CAKI-1; assay: Cytotoxicity against human Caki1 cells assessed as cell growth at 10^-6 M after 48 hrs by SRB assay relative to control; conditions: CAKI-1, 48 h, read-out: Activity
# [10] = Cytotoxicity against human HCT116 cells assessed as cell growth at 10^-6 M after 48 hrs by SRB assay relative to control; conditions: HCT-116, 48 h, read-out: Activity
# [11] = system: SNB-19; assay: Cytotoxicity against human SNB19 cells assessed as cell growth at 10^-8 M after 48 hrs by SRB assay relative to control; conditions: SNB-19, 48 h, read-out: Activity
# [12] = system: HOP-62; assay: Cytotoxicity against human HOP62 cells after 48 hrs by SRB assay; conditions: HOP-62, 48 h
# [13] = system: NCI-H322M; assay: Cytotoxicity against human NCI-H322M cells assessed as cell growth at 10^-6 M after 48 hrs by SRB assay relative to control; conditions: read-out: Activity
# [14] = system: A498; assay: Cytotoxicity against human A498 cells after 48 hrs by SRB assay; conditions: A498, 48 h; for CC50: read-out: LC50 (the source's name)
# [15] = system: SK-MEL-2; assay: Cytotoxicity against human SK-MEL-2 cells assessed as cell growth at 10^-6 M after 48 hrs by SRB assay relative to control; conditions: SK-MEL-2, 48 h, read-out: Activity
# [16] = Cytotoxicity against human HCT116 cells assessed as cell growth at 10^-7 M after 48 hrs by SRB assay relative to control; conditions: HCT-116, 48 h, read-out: Activity
# [17] = system: SK-MEL-5; assay: Cytotoxicity against human SK-MEL-5 cells assessed as cell growth at 10^-6 M after 48 hrs by SRB assay relative to control; conditions: SK-MEL-5, 48 h, read-out: Activity
# [18] = system: KM12; assay: Cytotoxicity against human KM12 cells assessed as cell growth at 10^-6 M after 48 hrs by SRB assay relative to control; conditions: KM12, 48 h, read-out: Activity
# [19] = system: SNB-19; assay: Cytotoxicity against human SNB19 cells assessed as cell growth at 10^-4 M after 48 hrs by SRB assay relative to control; conditions: SNB-19, 48 h, read-out: Activity
# [20] = system: MCF7; assay: Cytotoxicity against human MCF7 cells assessed as cell growth at 10^-4 M after 48 hrs by SRB assay relative to control; conditions: MCF7, 48 h, read-out: Activity
# [21] = Cytotoxicity against human OVCAR4 cells assessed as cell growth at 10^-4 M after 48 hrs by SRB assay relative to control; conditions: OVCAR-4, 48 h, read-out: Activity
# [22] = Cytotoxicity against human HCT116 cells assessed as cell growth at 10^-8 M after 48 hrs by SRB assay relative to control; conditions: HCT-116, 48 h, read-out: Activity
# [23] = system: MOLT-4; assay: Cytotoxicity against human MOLT4 cells assessed as cell growth at 10^-8 M after 48 hrs by SRB assay relative to control; conditions: MOLT-4, 48 h, read-out: Activity
# [24] = system: CAKI-1; assay: Cytotoxicity against human Caki1 cells assessed as cell growth at 10^-8 M after 48 hrs by SRB assay relative to control; conditions: CAKI-1, 48 h, read-out: Activity
# [25] = system: KM12; assay: Cytotoxicity against human KM12 cells assessed as cell growth at 10^-7 M after 48 hrs by SRB assay relative to control; conditions: KM12, 48 h, read-out: Activity
# [26] = system: MDA-MB-435; assay: Cytotoxicity against human MDA-MB-435 cells assessed as cell growth at 10^-7 M after 48 hrs by SRB assay relative to control; conditions: MDA-MB-435, 48 h, read-out: Activity
# [27] = Cytotoxicity against human UO31 cells after 48 hrs by SRB assay; conditions: UO-31, 48 h
# [28] = Cytotoxicity against human EKVX cells after 48 hrs by SRB assay
# [29] = system: RXF 393; assay: Cytotoxicity against human RXF393 cells assessed as cell growth at 10^-8 M after 48 hrs by SRB assay relative to control; conditions: RXF 393, 48 h, read-out: Activity
# [30] = system: Malme-3M; assay: Cytotoxicity against human MALME-3M cells assessed as cell growth at 10^-7 M after 48 hrs by SRB assay relative to control; conditions: read-out: Activity
# [31] = Cytotoxicity against human OVCAR8 cells assessed as cell growth at 10^-6 M after 48 hrs by SRB assay relative to control; conditions: OVCAR-8, 48 h, read-out: Activity
# [32] = system: RXF 393; assay: Cytotoxicity against human RXF393 cells assessed as cell growth at 10^-4 M after 48 hrs by SRB assay relative to control; conditions: RXF 393, 48 h, read-out: Activity
# [33] = system: MDA-MB-468; assay: Cytotoxicity against human MDA-MB-468 cells assessed as cell growth at 10^-7 M after 48 hrs by SRB assay relative to control; conditions: MDA-MB-468, 48 h, read-out: Activity
# [34] = system: COLO 205; assay: Cytotoxicity against human COLO205 cells assessed as cell growth at 10^-4 M after 48 hrs by SRB assay relative to control; conditions: COLO 205, 48 h, read-out: Activity
# [35] = system: MDA-MB-468; assay: Cytotoxicity against human MDA-MB-468 cells assessed as cell growth at 10^-8 M after 48 hrs by SRB assay relative to control; conditions: MDA-MB-468, 48 h, read-out: Activity
# [36] = system: COLO 205; assay: Cytotoxicity against human COLO205 cells after 48 hrs by SRB assay; conditions: COLO 205, 48 h; for CC50: read-out: LC50 (the source's name)
structure (smiles),measurement,setting,value
CC(C)=CCC[C@H](C)c1ccc(C)c(CNCC2CCNCC2)c1O,growth at 100 µM,[1],-63%
same,GI50,[2],3.99 µM
same,TGI,[2],> 25 µM
same,CC50,[2],> 25 µM
same,growth at 0.1 µM,[3],105%
same,GI50,[4],4.07 µM
same,TGI,[4],8.32 µM
same,CC50,[4],17 µM
same,GI50,[5],7.12 µM
same,TGI,[5],> 25 µM
same,CC50,[5],> 25 µM
same,growth at 0.01 µM,[6],97%
same,GI50,[7],4.13 µM
same,TGI,[7],7.73 µM
same,CC50,[7],14.4 µM
same,growth at 0.1 µM,[8],93%
same,growth at 1 µM,[9],89%
same,growth at 1 µM,[10],105%
same,growth at 0.01 µM,[11],92%
same,GI50,[12],4.12 µM
same,LC50,[12],17.6 µM
same,TGI,[12],8.5 µM
same,growth at 1 µM,[13],99%
same,GI50,[14],12.1 µM
same,TGI,[14],> 25 µM
same,CC50,[14],> 25 µM
same,growth at 1 µM,[15],116%
same,growth at 0.1 µM,[16],98%
same,growth at 1 µM,[17],93%
same,growth at 1 µM,[18],93%
same,growth at 100 µM,[19],21%
same,growth at 100 µM,[20],-89%
same,growth at 100 µM,[21],44%
same,growth at 0.01 µM,[22],100%
same,growth at 0.01 µM,[23],107%
same,growth at 0.01 µM,[24],92%
same,growth at 0.1 µM,[25],97%
same,growth at 0.1 µM,[26],92%
same,GI50,[27],3.58 µM
same,LC50,[27],> 25 µM
same,TGI,[27],12.3 µM
same,GI50,[28],8.56 µM
same,LC50,[28],> 25 µM
same,TGI,[28],> 25 µM
same,growth at 0.01 µM,[29],101%
same,growth at 0.1 µM,[30],89%
same,growth at 1 µM,[31],100%
same,growth at 100 µM,[32],-24%
same,growth at 0.1 µM,[33],77%
same,growth at 100 µM,[34],-93%
same,growth at 0.01 µM,[35],95%
same,GI50,[36],3.98 µM
same,TGI,[36],7.57 µM
same,CC50,[36],14.4 µM
COc1ccc(CCN2COc3c([C@@H](C)CCC=C(C)C)ccc(C)c3C2)cc1OC,growth at 100 µM,[1],-5%
same,GI50,[2],12.1 µM
same,TGI,[2],42.8 µM
same,CC50,[2],> 100 µM
same,growth at 0.1 µM,[3],93%
same,GI50,[4],4.47 µM
same,TGI,[4],15.9 µM
same,CC50,[4],39.9 µM
same,GI50,[5],1.45 µM
same,TGI,[5],4.34 µM
same,CC50,[5],17.3 µM
same,growth at 0.01 µM,[6],94%
same,GI50,[7],1.59 µM
same,TGI,[7],2.96 µM
same,CC50,[7],5.49 µM
same,growth at 0.1 µM,[8],98%
same,growth at 1 µM,[9],83%
same,growth at 1 µM,[10],97%
same,growth at 0.01 µM,[11],99%
same,GI50,[12],1.86 µM
same,LC50,[12],7.05 µM
same,TGI,[12],36.2 µM
same,growth at 1 µM,[13],92%
same,GI50,[14],1.96 µM
same,TGI,[14],11.9 µM
same,CC50,[14],37.1 µM
same,growth at 1 µM,[15],94%
same,growth at 0.1 µM,[16],92%
same,growth at 1 µM,[17],90%
same,growth at 1 µM,[18],93%
same,growth at 100 µM,[19],-33%
same,growth at 100 µM,[20],-92%
same,growth at 100 µM,[21],-45%
same,growth at 0.01 µM,[22],98%
same,growth at 0.01 µM,[23],90%
same,growth at 0.01 µM,[24],94%
same,growth at 0.1 µM,[25],96%
same,growth at 0.1 µM,[26],95%
same,GI50,[27],2.45 µM
same,LC50,[27],36.4 µM
same,TGI,[27],12.3 µM
same,GI50,[28],5.14 µM
same,LC50,[28],> 100 µM
same,TGI,[28],25.4 µM
same,growth at 0.01 µM,[29],70%
same,growth at 0.1 µM,[30],86%
same,growth at 1 µM,[31],94%
same,growth at 100 µM,[32],-92%
same,growth at 0.1 µM,[33],60%
same,growth at 100 µM,[34],-100%
same,growth at 0.01 µM,[35],75%
same,GI50,[36],1.79 µM
same,TGI,[36],3.19 µM
same,CC50,[36],5.7 µM
CC(C)=CCC[C@H](C)c1ccc(C)c2c1OCN(CC1CCNCC1)C2,growth at 100 µM,[1],-73%
same,GI50,[2],14 µM
same,TGI,[2],29.4 µM
same,CC50,[2],61.8 µM
same,growth at 0.1 µM,[3],112%
same,GI50,[4],13.7 µM
same,TGI,[4],27.5 µM
same,CC50,[4],55.3 µM
same,GI50,[5],16.6 µM
same,TGI,[5],33.3 µM
same,CC50,[5],66.7 µM
same,growth at 0.01 µM,[6],102%
same,GI50,[7],3.74 µM
same,TGI,[7],12.3 µM
same,CC50,[7],37.5 µM
same,growth at 0.1 µM,[8],98%
same,growth at 1 µM,[9],98%
same,growth at 1 µM,[10],104%
same,growth at 0.01 µM,[11],95%
same,GI50,[12],14.8 µM
same,LC50,[12],55.6 µM
same,TGI,[12],28.7 µM
same,growth at 1 µM,[13],108%
same,GI50,[14],12.3 µM
same,TGI,[14],26 µM
same,CC50,[14],55 µM
same,growth at 1 µM,[15],120%
same,growth at 0.1 µM,[16],100%
same,growth at 1 µM,[17],96%
same,growth at 1 µM,[18],103%
same,growth at 100 µM,[19],-82%
same,growth at 100 µM,[20],-95%
same,growth at 100 µM,[21],-91%
same,growth at 0.01 µM,[22],100%
same,growth at 0.01 µM,[23],106%
same,growth at 0.01 µM,[24],101%
same,growth at 0.1 µM,[25],99%
same,growth at 0.1 µM,[26],96%
same,GI50,[27],12.8 µM
same,LC50,[27],58.2 µM
same,TGI,[27],27.3 µM
same,GI50,[28],20.7 µM
same,LC50,[28],> 100 µM
same,TGI,[28],66.9 µM
same,growth at 0.01 µM,[29],86%
same,growth at 0.1 µM,[30],94%
same,growth at 1 µM,[31],100%
same,growth at 100 µM,[32],-93%
same,growth at 0.1 µM,[33],94%
same,growth at 100 µM,[34],-89%
same,growth at 0.01 µM,[35],94%
same,GI50,[36],1.86 µM
same,TGI,[36],3.41 µM
same,CC50,[36],6.25 µM
